Experimental data reported in ChEMBL document CHEMBL1201862, “PubChem BioAssay data set” (2004).
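Compound exposure: 48 hours, 5 concentrations, 96-well plates. The concentration for 50% growth inhibition is given as GI50.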 Calls of active or inactive are those of the source. No stated cut-off is given here; in the data, active = GI50 up to about 1.1 µM and inactive = higher.

Experiments:
Experiment in all cases: growth of human tumour cells (NCI), 48 h
SK-MEL-2 = system: SK-MEL-2
SF-539 = system: SF-539
SK-MEL-5 = system: SK-MEL-5
M14 = system: M14
K562 = system: K562
U-251 = system: U-251
UACC-62 = system: UACC-62
HOP-62 = system: HOP-62
SF-268 = system: SF-268
SK-MEL-28 = system: SK-MEL-28
UACC-257 = system: UACC-257
RPMI-8226 = system: RPMI-8226
COLO 205 = system: COLO 205
IGROV-1 = system: IGROV-1
SN12C = system: SN12C
A498 = system: A498

| SMILES | GI50 (SK-MEL-2) | GI50 (SF-539) | GI50 (SK-MEL-5) | GI50 (M14) | GI50 (K562) | GI50 (U-251) | GI50 (UACC-62) | GI50 (HOP-62) | GI50 (SF-268) | GI50 (SK-MEL-28) | GI50 (UACC-257) | GI50 (RPMI-8226) | GI50 (COLO 205) | GI50 (IGROV-1) | GI50 (SN12C) | GI50 (A498) |
| --- | --- | --- | --- | --- | --- | --- | --- | --- | --- | --- | --- | --- | --- | --- | --- | --- |
| CCOC(=O)C(C(=O)Cc1ccccc1)c1ccccc1 (centres undefined) | > 100 µM (inactive) | > 100 µM (inactive) | > 100 µM (inactive) | > 100 µM (inactive) | > 100 µM (inactive) | > 100 µM (inactive) | > 100 µM (inactive) | > 100 µM (inactive) | > 100 µM (inactive) | > 100 µM (inactive) | > 100 µM (inactive) | > 100 µM (inactive) | > 100 µM (inactive) | > 100 µM (inactive) | > 100 µM (inactive) |  |
| Cc1occ2c1C(=O)CC1C2[C@@H](O)CC2C(C)(C)CCC[C@]12C (some centres undefined) |  | > 100 µM (inactive) | > 100 µM (inactive) | > 100 µM (inactive) | > 100 µM (inactive) | 94.8 µM (inactive) | 95.7 µM (inactive) | > 100 µM (inactive) | > 100 µM (inactive) | > 100 µM (inactive) | > 100 µM (inactive) | 55.6 µM (inactive) | > 100 µM (inactive) | > 100 µM (inactive) | > 100 µM (inactive) | > 100 µM (inactive) |
| C=CCNC(=S)N1CC(C)C(=O)Nc2ccccc21 (centres undefined) | > 100 µM (inactive) | > 100 µM (inactive) | > 100 µM (inactive) | > 100 µM (inactive) | > 100 µM (inactive) | > 100 µM (inactive) | > 100 µM (inactive) | > 100 µM (inactive) | > 100 µM (inactive) | > 100 µM (inactive) |  | > 100 µM (inactive) | > 100 µM (inactive) | > 100 µM (inactive) | > 100 µM (inactive) |  |
| Cc1ccc(C2=Nc3ccccc3[S+]([O-])C(c3ccc4c(c3)OCO4)C2)cc1 (centres undefined) | 19 µM (inactive) | 21.2 µM (inactive) | 15 µM (inactive) | 17.6 µM (inactive) | 27.7 µM (inactive) | 13 µM (inactive) | 18.3 µM (inactive) | 39.4 µM (inactive) | 19.5 µM (inactive) | 24.5 µM (inactive) | 29.7 µM (inactive) |  | 29.6 µM (inactive) | 34.8 µM (inactive) | 17.4 µM (inactive) | 18.2 µM (inactive) |
| CC1(C)C2CCC3(C2)CS(=O)(=O)N2OC231 (centres undefined) | 21.1 µM (inactive) | 18.5 µM (inactive) | 21 µM (inactive) | 16.2 µM (inactive) | 17.4 µM (inactive) | 34.4 µM (inactive) | 17.5 µM (inactive) | 79.8 µM (inactive) | 26.4 µM (inactive) | 25.4 µM (inactive) | 17.1 µM (inactive) | 29.5 µM (inactive) | 17.9 µM (inactive) | 19.5 µM (inactive) | 16.9 µM (inactive) | 25.2 µM (inactive) |
| O=C(CSc1nnc(Cc2ccccc2)o1)Nc1ccc(Cl)cc1Cl | > 100 µM (inactive) | > 100 µM (inactive) | > 100 µM (inactive) | > 100 µM (inactive) | > 100 µM (inactive) | > 100 µM (inactive) | > 100 µM (inactive) | > 100 µM (inactive) | > 100 µM (inactive) | > 100 µM (inactive) | > 100 µM (inactive) | > 100 µM (inactive) | > 100 µM (inactive) | > 100 µM (inactive) | > 100 µM (inactive) | > 100 µM (inactive) |
| Nc1nncc2c1c(Br)cn2C1OC(CO)C(O)C1O (centres undefined) | > 40.8 µM (inactive) | 30.5 µM (inactive) | > 100 µM (inactive) | 23.9 µM (inactive) | 5.73 µM (inactive) | > 70.6 µM (inactive) | 56.9 µM (inactive) | 22 µM (inactive) | 35.1 µM (inactive) | > 100 µM (inactive) | > 100 µM (inactive) | 10.2 µM (inactive) | 48.6 µM (inactive) | 25.1 µM (inactive) | 5.3 µM (inactive) | > 67.6 µM (inactive) |
| CC(=O)c1c(O)c2c([nH]c1=O)CCCC2 |  |  |  | 39.3 µM (inactive) | > 100 µM (inactive) | 23.6 µM (inactive) | 18.1 µM (inactive) | 19.9 µM (inactive) | 46.8 µM (inactive) | 94.4 µM (inactive) |  |  | > 100 µM (inactive) | 32.9 µM (inactive) | 22.5 µM (inactive) |  |
| CCNC(=O)O/N=C1\CCC2[C@@H]3CC=C4C[C@@H](OC5CCCCO5)CC[C@]4(C)C3CC[C@]12C (some centres undefined) | 2.2 µM (inactive) | 6.19 µM (inactive) | 2.28 µM (inactive) | 1.71 µM (inactive) | 1.37 µM (inactive) | 1.89 µM (inactive) | 0.733 µM (active) | 22.3 µM (inactive) |  | 3.19 µM (inactive) | 1.61 µM (inactive) | 1.58 µM (inactive) | 0.964 µM (active) | 3.16 µM (inactive) | 2.12 µM (inactive) | 34 µM (inactive) |
| COc1cc2cccc(/N=C\c3ccccc3Cl)c2cc1OC | > 100 µM (inactive) | > 100 µM (inactive) | > 100 µM (inactive) | > 100 µM (inactive) | 4.8 µM (inactive) | 95.9 µM (inactive) | 66.5 µM (inactive) | > 100 µM (inactive) | > 100 µM (inactive) | > 100 µM (inactive) | > 100 µM (inactive) | 78.2 µM (inactive) | > 100 µM (inactive) | > 100 µM (inactive) | > 100 µM (inactive) |  |
| COc1ccc(C(c2ccccc2C(=O)O)c2ccc(OC)c3ccccc23)c2ccccc12 |  | 12 µM (inactive) | 15.9 µM (inactive) | 16.2 µM (inactive) | 5.2 µM (inactive) | 7.83 µM (inactive) | 4.71 µM (inactive) | 15.5 µM (inactive) | > 10 µM (inactive) |  | 4.85 µM (inactive) | 3.61 µM (inactive) | 13 µM (inactive) | 11.3 µM (inactive) | 10.9 µM (inactive) | 16.2 µM (inactive) |
| O=C(Cc1ccccc1)N/N=C(/c1nc2ccc([N+](=O)[O-])cc2nc1O)C(O)c1ccc(C(O)/C(=N/NC(=O)Cc2ccccc2)c2nc3ccc([N+](=O)[O-])cc3nc2O)cc1 (centres undefined) | 40 µM (inactive) | 56.8 µM (inactive) |  | 40.6 µM (inactive) | 12.4 µM (inactive) |  | 35.6 µM (inactive) | 44.6 µM (inactive) | 20.2 µM (inactive) | > 100 µM (inactive) | 62.4 µM (inactive) | 21 µM (inactive) | 37.5 µM (inactive) | > 100 µM (inactive) | > 100 µM (inactive) | > 100 µM (inactive) |
| COCCCNC(=O)CC(=O)NCCCOC | > 100 µM (inactive) | > 100 µM (inactive) | > 100 µM (inactive) | > 100 µM (inactive) | > 100 µM (inactive) | > 100 µM (inactive) | > 100 µM (inactive) | > 100 µM (inactive) | > 100 µM (inactive) | > 100 µM (inactive) | > 100 µM (inactive) | > 100 µM (inactive) | > 100 µM (inactive) | > 100 µM (inactive) | > 100 µM (inactive) | > 100 µM (inactive) |
| Cc1ccc([N+](=O)[O-])cc1NC(=O)/C(CC(=O)c1sc(C(N)=S)nc1C)=N\N | > 100 µM (inactive) | > 100 µM (inactive) | 90.6 µM (inactive) | > 100 µM (inactive) | 41.4 µM (inactive) | 32.1 µM (inactive) | > 100 µM (inactive) | > 100 µM (inactive) | > 100 µM (inactive) | > 100 µM (inactive) | > 100 µM (inactive) | > 100 µM (inactive) |  | 30.6 µM (inactive) |  | > 100 µM (inactive) |
| CCN(CC)c1cccc2c1C1(O)CCC3(CC21)OCCCCO3 (centres undefined) | > 100 µM (inactive) | 35.3 µM (inactive) | 55.6 µM (inactive) | > 100 µM (inactive) | > 100 µM (inactive) | 39.9 µM (inactive) |  | > 100 µM (inactive) | > 100 µM (inactive) | > 100 µM (inactive) | > 100 µM (inactive) | 77.6 µM (inactive) | > 100 µM (inactive) | 67.1 µM (inactive) | 74.1 µM (inactive) | 56.2 µM (inactive) |
| N#CC1(C2CC(=O)N(c3ccccc3)C2=O)CCCCC1=O (centres undefined) |  | > 100 µM (inactive) | > 100 µM (inactive) | > 100 µM (inactive) | > 100 µM (inactive) | > 100 µM (inactive) | > 100 µM (inactive) |  | > 100 µM (inactive) | > 100 µM (inactive) |  | > 100 µM (inactive) | > 100 µM (inactive) | > 100 µM (inactive) | 0.791 µM (active) |  |
| COc1cc(C(=O)NO)ccc1O | > 100 µM (inactive) | 87.7 µM (inactive) |  | > 100 µM (inactive) | > 100 µM (inactive) | > 100 µM (inactive) | > 100 µM (inactive) | > 100 µM (inactive) | > 100 µM (inactive) | > 100 µM (inactive) | > 100 µM (inactive) | > 100 µM (inactive) | > 100 µM (inactive) | > 100 µM (inactive) | > 100 µM (inactive) | > 100 µM (inactive) |
| CC(=O)c1cccc(NC(=O)/C(=N\NC(C)(C)C)c2c(O)c3ccccc3oc2=O)c1 | > 100 µM (inactive) | > 100 µM (inactive) | > 100 µM (inactive) | > 100 µM (inactive) |  |  | > 100 µM (inactive) | > 100 µM (inactive) | > 100 µM (inactive) | > 100 µM (inactive) | > 100 µM (inactive) |  | > 100 µM (inactive) | > 100 µM (inactive) | > 100 µM (inactive) |  |
| CCCCCC[C@@H]1CCC2C(CO)[C@@H](O)CC[C@@H]2C1 (some centres undefined) | 26.7 µM (inactive) | 18.7 µM (inactive) | 20 µM (inactive) | 17.5 µM (inactive) | 21.3 µM (inactive) | 18.2 µM (inactive) | 21.3 µM (inactive) | 18.3 µM (inactive) | 18.1 µM (inactive) | 19.6 µM (inactive) | 16.7 µM (inactive) | 25.3 µM (inactive) | 18.5 µM (inactive) | 18.2 µM (inactive) | 16.6 µM (inactive) |  |
